The values below come from publication PMC7689923 (ACS Omega, 2020).

In brackets after ≈: the same amount, converted by molar mass. Several values for one entry are separate records, joined by “and”; a condition that tells them apart may be missing. Equal entries are not always repeated.

For assay [1], the target named is T1, KasA (Mycobacterium tuberculosis, UniProt P9WQD9).
T1 sequence (P9WQD9 1-416): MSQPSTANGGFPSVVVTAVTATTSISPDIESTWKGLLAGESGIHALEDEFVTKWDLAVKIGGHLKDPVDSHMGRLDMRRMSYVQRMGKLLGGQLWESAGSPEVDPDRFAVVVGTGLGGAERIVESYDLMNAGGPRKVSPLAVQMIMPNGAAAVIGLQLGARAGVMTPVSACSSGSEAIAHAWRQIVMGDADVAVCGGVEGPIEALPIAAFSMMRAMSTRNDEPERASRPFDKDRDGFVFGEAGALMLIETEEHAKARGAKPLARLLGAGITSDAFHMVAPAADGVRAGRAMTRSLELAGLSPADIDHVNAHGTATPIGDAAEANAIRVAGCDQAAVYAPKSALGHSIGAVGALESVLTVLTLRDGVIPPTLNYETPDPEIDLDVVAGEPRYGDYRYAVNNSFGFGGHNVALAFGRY
Nature of the assay: Thermal shift experiments using nanoDSF. In kind it is binding.

Assay [2] has as its target T1, KasA. Kind of assay: biochemical. In kind it is binding. Conditions: for KasA binding via MST (in words): at the concentrations tested.
For assay [3], the system named is Mtb. Conditions: cited from earlier work.
Assay [4] addresses T1, KasA. The settings on record: binder of KasA; cited from earlier work.

`CCCNC(=O)NS(=O)(=O)c1ccc(Cl)cc1` [Chlorpropamide]: the “change in Tm (in words)” value in assay [1] is “did not show significant changes in Tm”. Moreover, in assay [2], the Kd – broadly, the concentration at which binding is half-saturated – is 90.6 µM and > 90 µM; the “KasA binding via MST (in words)” value is on record as “showed binding to KasA”.

Turning to `CCCCS(=O)(=O)Nc1ccc2cnn(C)c2c1` [DG167], the “minimum inhibitor concentration (MIC)” value in assay [3] was 0.39 M. Further, the EC50 (usually the midpoint of the concentration-response curve) in assay [4] is 0.131 ± 0.0182 µM.

Regarding `COC(=O)Nc1nc2cc(C(=O)c3ccc(F)cc3)ccc2[nH]1` [Flubendazole, flubendazole], the “change in Tm (in words)” value in assay [1] is given as “did not show significant changes in Tm”. Also, in assay [2], the Kd is 38.5 µM and 30 to 40 µM; the “KasA binding via MST (in words)” value was “showed binding to KasA”.

Take `CC[C@H](C)C(=O)O[C@H]1C[C@@H](C)C=C2C=C[C@H](C)[C@H](CC[C@@H]3C[C@@H](O)CC(=O)O3)[C@H]21` [Lovastatin, lovastatin]: the “change in Tm (in words)” value in assay [1] is “did not show significant changes in Tm”. Further, in assay [2], the Kd was 224 µM and > 90 µM; the “KasA binding via MST (in words)” value is “showed binding to KasA”.

In the case of `CCCc1nn(C)c2c(=O)[nH]c(-c3cc(S(=O)(=O)N4CCN(C)CC4)ccc3OCC)nc12` [Sildenafil, sildenafil], the Kd in assay [2] was 32.5 µM and 30 to 40 µM.

As to `Oc1cc(Cl)ccc1Oc1ccc(Cl)cc1Cl` [Triclosan, triclosan], the MIC (usually the lowest concentration that inhibits growth of the organism) in assay [3] (Mtb inhibitor) was 12.5 µM (≈ 3.62 µg/mL).
